The text below walks through data of US8536187B2 (Gilead Sciences, Inc., priority 2008, dated 2013).

As a reminder, the EC50 is the concentration needed to bring the measured effect to its halfway point. The low end stands for higher potency in that assay, the high end for lower potency in that assay. A word on the CC50: it is the concentration that lowers cell viability or growth by half.

Where only a bound is given, the exact number is not on record here.

Data set [1] has as its system HCV replicon in human hepatoma Huh-7 cell line. Nature of the data set: Anti-HCV replicon assay, EC50 (luciferase luminescence). It is filed as cell-based. The following applies: Hepatitis C virus, Huh-7, 72 h. In a few lines: (§1)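 Huh-7 cells carrying HCV replicon (6000/well) incubated with serially diluted compound, 0.5% DMSO final, 3 days at 37° C, 5% CO2. EC50 from luciferase luminescence after 30 min lysis/substrate at room temperature; CC50 from CellTiter-Glo luminescence after 10 min at room temperature.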
(A replicon is a self-replicating genome or part of one, used to study replication in cells.)

Data set [2] can be described thus: CC50 assay (CellTiter-Glo) in Huh-7 HCV replicon cells. It counts as cell-based. The settings on record: human. In a few lines:
as §1
On the technique in general: Cellular ATP, detected with luciferase, serves as a proxy for viable cell number.

Take `NS(=O)(=O)c1cc(CNc2nc(NCC(F)(F)F)c3nc(-c4ccc(F)cc4)ccc3n2)ccc1F` [Example 7, 2-Fluoro-5-{[6-(4-fluoro-phenyl)-4-(2,2,2-trifluoro-ethylamino)-pyrido[3,2-d]pyrimidin-2-ylamino]-methyl}-benzenesulfonamide]: the EC50 in data set [1] was below 100 nM. The compound further came in with a CC50 at 3 days in data set [2] (Table 1, 3 days incubation) of 10000 to 25000 nM.
Consider `NS(=O)(=O)c1cccc(CNc2nc(NC3(C(F)(F)F)CCCCC3)c3nc(-c4ccc(F)cc4)ccc3n2)c1` [Example 66, 3-((6-(4-fluorophenyl)-4-(1-(trifluoromethyl)cyclohexylamino)pyrido[3,2-d]pyrimidin-2-ylamino)methyl)benzene-sulfonamide], for which the EC50 in data set [1] lay within 100 to 250 nM. For the same compound, in data set [2] (Table 2, 3 days incubation), the CC50 at 3 days was above 10000 nM.
As to `CS(=O)(=O)c1cc(-c2ccc3nc(NCc4ccc(-n5cncn5)cc4)nc(OC4CC4)c3n2)ccc1OC(F)F` [Example 192, N-(4-(1H-1,2,4-triazol-1-yl)benzyl)-4-cyclopropoxy-6-(4-(difluoromethoxy)-3-(methylsulfonyl)phenyl)pyrido [3,2-d]pyrimidin-2-amine], the EC50 in data set [1] is below 100 nM. Besides, the CC50 at 3 days in data set [2] (Table 2, 3 days incubation) was in the range of 1000 to 10000 nM.
For the compound `COc1ccc(-c2ccc3nc(NC(C)c4cc(F)cc(F)c4)nc(NCC(F)(F)F)c3n2)cc1S(C)(=O)=O` (stereo not drawn) [Example 180, N^2-(1-(3,5-difluorophenyl)ethyl)-6-(4-methoxy-3-(methylsulfonyl)phenyl)-N^4-(2,2,2-trifluoroethyl)pyrido [3,2-d]pyrimidine-2,4-diamine], the EC50 in data set [1] fell in the range of 100 to 250 nM. The same compound showed a CC50 at 3 days in data set [2] (Table 2, 3 days incubation) of 1000 to 10000 nM.
For `c1ncn(-c2ccc(CNc3nc(OC4CC4)c4nc(-c5ccc(OC6CCC6)nc5)ccc4n3)cc2)n1` [Example 251, N-(4-(1H-1,2,4-triazol-1-yl)benzyl)-6-(6-cyclobutoxy-pyridin-3-yl)-4-cyclopropoxy-pyrido[3,2-d]pyrimidin-2-amine] the same measures were 100 to 250 nM and 1000 to 10000 nM.
For `FC(F)(F)C1(Nc2nc(NCc3ccc(-n4cncn4)cc3)nc3ccc(-c4ccc(NC5CC5)nc4)nc23)CC1` [Example 127, N^2-(4-(1H-1,2,4-triazol-1-yl)benzyl)-6-(6-(cyclopropylamino)pyridin-3-yl)-N^4-(1-(trifluoromethyl)cyclopropyl)pyrido[3,2-d] pyrimidine-2,4-diamine] the same measures were below 100 nM and 1000 to 10000 nM.
As to `O=C1NCCN1c1ccc(-c2ccc3nc(NCc4ccc(-n5cncn5)cc4)nc(NC4(C(F)(F)F)CC4)c3n2)cc1` [Example 129, 1-(4-(2-(4-(1H-1,2,4-triazol-1-yl)benzylamino)-4-(1-(trifluoromethyl)cyclopropyl-amino)pyrido[3,2-d]pyrimidin-6-yl)phenyl)imidazolidin-2-one], the EC50 in data set [1] is below 100 nM. The CC50 at 3 days in data set [2] (Table 2, 3 days incubation) was below 1000 nM.
As for `C[C@H](Cn1cncn1)Nc1nc(NCC(F)(F)F)c2nc(C#CC3CC3)ccc2n1` [Example 281, (R)-N^2-(1-(1H-1,2,4-triazol-1-yl)propan-2-yl)-6-(2-cyclopropyl-ethynyl)-N^4-(2,2,2-trifluoro-ethyl)pyrido[3,2-d]pyrimidine-2,4-diamine], in data set [1], the EC50 was 250 to 2000 nM. This compound also showed a CC50 at 3 days in data set [2] (Table 2, 3 days incubation) above 10000 nM.
Turning to `C[C@@H](Nc1nc(NC2(C(F)(F)F)CCCC2)c2nc(-c3ccc(F)cc3)ccc2n1)c1ccc(S(N)(=O)=O)cc1` [Example 71, (R)-4-(1-(6-(4-fluorophenyl)-4-(1-(trifluoromethyl)cyclo-pentylamino)pyrido[3,2-d]pyrimidin-2-ylamino)ethyl) benzenesulfonamide], the EC50 in data set [1] was in the range of 250 to 2000 nM. For the same compound, the CC50 at 3 days in data set [2] (Table 2, 3 days incubation) is above 10000 nM.
For `CC1(Oc2nc(NCc3ccc(-n4cncn4)cc3)nc3ccc(-c4ccc(OC5CC5)nc4)nc23)CC1` [Example 247, N-(4-(1H-1,2,4-triazol-1-yl)benzyl)-6-(6-cyclopropoxy-pyridin-3-yl)-4-(1-methylcyclo-propoxy)pyrido[3,2-d]pyrimidin-2-amine], in data set [1], the EC50 was below 100 nM. The same compound returned a CC50 at 3 days in data set [2] (Table 2, 3 days incubation) of 1000 to 10000 nM.
In data set [1], `CS(=O)(=O)c1cccc(-c2ccc3nc(NCc4ccc(-n5cncn5)cc4)nc(NCC(F)(F)Cl)c3n2)c1` [Example 196, N^2-(4-(1H-1,2,4-triazol-1-yl)benzyl)-N^4-(2-chloro-2,2-difluoroethyl)-6-(3-(methylsulfonyl)phenyl)pyrido [3,2-d]pyrimidine-2,4-diamine] returned an EC50 below 100 nM. The compound further had a CC50 at 3 days in data set [2] (Table 2, 3 days incubation) above 10000 nM.
On to `Fc1ccc(-c2ccc3nc(NCc4cc(F)cc(-n5cncn5)c4)nc(NC4(C(F)(F)F)CC4)c3n2)cc1` [Example 128, N^2-(3-fluoro-5-(1H-1,2,4-triazol-1-yl)benzyl)-6-(4-fluorophenyl)-N^4-(1-(trifluoromethyl)cyclopropyl) pyrido[3,2-d]pyrimidine-2,4-diamine], for which the EC50 in data set [1] lay within 250 to 2000 nM. This compound also registered a CC50 at 3 days in data set [2] (Table 2, 3 days incubation) above 10000 nM.
Regarding `CC1(Oc2nc(NCc3cc(Cl)cc(S(N)(=O)=O)c3)nc3ccc(C#CC4CC4)nc23)CC1` [Example 301, 3-chloro-5-((6-(2-cyclopropyl-ethynyl)-4-(1-methylcyclo-propoxy)pyrido[3,2-d]pyrimidin-2-ylamino)methyl) benzenesulfonamide], the EC50 in data set [1] is below 100 nM. The CC50 at 3 days in data set [2] (Table 2, 3 days incubation) was above 10000 nM.
For `Fc1ccc(-c2ccc3nc(NCc4cccc(-n5cncn5)c4)nc(NCC(F)(F)F)c3n2)cc1` [Example 1, 6-(4-Fluoro-phenyl)-N2-(3-[1,2,4]-triazol-1-yl-benzyl)-N4-(2,2,2-trifluoro-ethyl)-pyrido[3,2-d]pyrimidine-2,4-diamine], in data set [1], the EC50 is 100 to 250 nM. This compound also registered a CC50 at 3 days in data set [2] (Table 1, 3 days incubation) above 25000 nM.
As to `CC(C)(C)NS(=O)(=O)c1cc(F)cc(CNc2nc(NC3(C(F)(F)F)CC3)c3nc(-c4ccc(Cl)c(S(C)(=O)=O)c4)ccc3n2)c1` [Example 38, N-tert-butyl-3-((6-(4-chloro-3-(methylsulfonyl)phenyl)-4-(1-(trifluoromethyl)cyclopropyl-amino)pyrido[3,2-d]pyrimidin-2-ylamino)methyl)-5-fluorobenzenesulfonamide], in data set [1], the EC50 is below 100 nM. Besides, the CC50 at 3 days in data set [2] (Table 2, 3 days incubation) is above 10000 nM.
In data set [1], `FC(F)(F)C1(Nc2nc(NCc3cccc(-n4cncn4)c3)nc3ccc(-c4ccc(NC5CC5)nc4)nc23)CC1` [Example 70, N^2-(3-(1H-1,2,4-triazol-1-yl)benzyl)-6-(6-(cyclopropylamino)pyridin-3-yl)-N^4-(1-(trifluoromethyl)cyclopropyl) pyrido[3,2-d]pyrimidine-2,4-diamine] showed an EC50 below 100 nM. Moreover, the 50% cytotoxic concentration (CC50) at 3 days in data set [2] (Table 2, 3 days incubation) was above 10000 nM.
In data set [1], `CN1CCN(c2ccc(-c3ccc4nc(NCc5cccc(S(C)(=O)=O)c5)nc(NC5(C(F)(F)F)CC5)c4n3)cc2)C1=O` [Example 50, 1-(4-(2-(3-(methylsulfonyl)benzylamino)-4-(1-(trifluoromethyl)cyclopropylamino)pyrido[3,2-d]pyrimidin-6-yl)phenyl)-3-methylimidazolidin-2-one] registered a 50% effective concentration (EC50) below 100 nM. This compound yielded a CC50 at 3 days in data set [2] (Table 2, 3 days incubation) of 1000 to 10000 nM.
On the same counts, the results for `C[C@@H](Nc1nc(NC2(C(F)(F)F)CC2)c2nc(-c3ccc(F)cc3)ccc2n1)c1ccc(S(N)(=O)=O)cc1` [Example 24, (R)-4-{1-[6-(4-fluorophenyl)-4-(1-trifluoromethyl-cyclopropylamino)-pyrido[3,2-d]pyrimidin-2-ylamino]-ethyl}-benzenesulfonamide] are below 100 nM and above 10000 nM.
With `Cc1ccc(-c2ccc3nc(NCc4cccc(S(C)(=O)=O)c4)nc(NCC(F)(F)F)c3n2)cc1S(C)(=O)=O` [Example 173, N^2-(3-(methylsulfonyl)benzyl)-6-(4-methyl-3-(methylsulfonyl)phenyl)-N^4-(2,2,2-trifluoroethyl) pyrido[3,2-d]pyrimidine-2,4-diamine], the EC50 in data set [1] is below 100 nM. This compound showed a CC50 at 3 days in data set [2] (Table 2, 3 days incubation) of 1000 to 10000 nM.
As to `CCS(=O)(=O)c1cc(-c2ccc3nc(NCc4ccc(S(N)(=O)=O)cc4)nc(NCC(F)(F)F)c3n2)ccc1OC` [Example 149, 4-((6-(3-(ethylsulfonyl)-4-methoxyphenyl)-4-(2,2,2-trifluoroethylamino)pyrido[3,2-d]pyrimidin-2-ylamino)methyl) benzenesulfonamide], the EC50 in data set [1] was below 100 nM. Besides, the 50% cytotoxic concentration (CC50) at 3 days in data set [2] (Table 2, 3 days incubation) is above 10000 nM.
Compound `NS(=O)(=O)c1cc(F)cc(CNc2nc(NC3(C(F)(F)F)CC3)c3nc(-c4ccc(F)nc4)ccc3n2)c1` [Example 77, 3-fluoro-5-((6-(6-fluoropyridin-3-yl)-4-(1-(trifluoromethyl)cyclopropylamino)pyrido[3,2-d]pyrimidin-2-ylamino)methyl) benzenesulfonamide] came in with an EC50 in data set [1] below 100 nM. In addition, the CC50 at 3 days in data set [2] (Table 2, 3 days incubation) was above 10000 nM.
On to `COc1ccc(-c2ccc3nc(NCc4ccc(C)c(F)c4)nc(NCC(F)(F)F)c3n2)cc1S(C)(=O)=O` [Example 176, N^2-(3-fluoro-4-methylbenzyl)-6-(4-methoxy-3-(methylsulfonyl)phenyl)-N^4-(2,2,2-trifluoroethyl) pyrido[3,2-d]pyrimidine-2,4-diamine], for which, in data set [1], the EC50 was below 100 nM. The compound further yielded a CC50 at 3 days in data set [2] (Table 2, 3 days incubation) of 1000 to 10000 nM.
Take `C[C@@H](Nc1nc(OC2CCC2)c2nc(-c3cccc(S(C)(=O)=O)c3)ccc2n1)c1ccc(S(N)(=O)=O)cc1` [Example 200, 4-((R)-1-(4-cyclobutoxy-6-(3-(methylsulfonyl)phenyl)pyrido [3,2-d]pyrimidin-2-ylamino)ethyl)benzenesulfonamide]: the EC50 in data set [1] is 100 to 250 nM. This compound showed a CC50 at 3 days in data set [2] (Table 2, 3 days incubation) above 10000 nM.
In data set [1], `CC(C)Oc1nc(NCc2ccc(-n3cncn3)cc2)nc2ccc(-c3ccc(OC(F)F)c(S(C)(=O)=O)c3)nc12` [Example 199, N-(4-(1H-1,2,4-triazol-1-yl)benzyl)-6-(4-(difluoromethoxy)-3-(methylsulfonyl)phenyl)-4-isopropoxypyrido[3,2-d] pyrimidin-2-amine] had an EC50 below 100 nM. Also, in data set [2] (Table 2, 3 days incubation), the CC50 at 3 days was above 10000 nM.
